Read-outs that look alike come from different tables or passages of the source.
How the values were obtained:
[1] = crystalline nicotinic acid (>1 g), cited from earlier work
[2] = system: LDL, HDL; conditions: cited from earlier work
[3] = system: serum glucose; assay: NHP crossover study: serum glucose
Protocol: (§1) The primary study endpoint is change in plasma LDL cholesterol and Apolipoprotein B at 48 hours. An aliquot of 300 μL of serum transferred to a cryovial and was immediately placed in a freezer set to maintain −70° C. until analyzed for clinical chemistry (LDL cholesterol, Apolipoprotein B, TGs, glucose) using a standard Roche Analyser.

[4] = biological target: PGD2 receptor-1 (DP1) (Homo sapiens, UniProt Q13258); conditions: nicotinic acid without vs with added laropiprant (Kush 2009); cited from earlier work
[5] = 8 and 14 months, on statin therapy; cited from earlier work
[6] = system: LDL cholesterol, HDL cholesterol, TG; conditions: adult dyslipidemias; cited from earlier work
[7] = secondary prevention; cited from earlier work
[8] = system: LDL cholesterol, Apolipoprotein B, TGs; assay: NHP crossover study: clinical chemistry (LDL-C, ApoB, TG)
Protocol: as §1

[9] = system: blood glucose; conditions: cited from earlier work; for patients with diabetes requiring a change in hypoglycemic therapy: in vivo
[10] = cited from earlier work
[11] = cited from earlier work; remark: listed apart in the source
[12] = system: prostaglandin D2 (PGD2); assay: NHP crossover study: serum PGD2; assay type: in vivo, cynomolgus monkeys; conditions: over 24 hours post dosing, equimolar doses
Protocol: For TxB2, an additional 0.4 mL whole blood aliquots were placed in siliconised glass tubes to induce a clotting response and the supernatants were analysed for TxB2 using a Luminex ELISA immunoassay. PGD2 was analysed from serum directly using a Luminex ELISA immunoassay.

[13] = cited from earlier work; remark: listed apart in the source
[14] = baseline to 48 hours, 28 mg/kg niacin equivalents daily oral gavage, n=6

Chain of PGD2 receptor-1 (DP1) (Q13258 whole entry): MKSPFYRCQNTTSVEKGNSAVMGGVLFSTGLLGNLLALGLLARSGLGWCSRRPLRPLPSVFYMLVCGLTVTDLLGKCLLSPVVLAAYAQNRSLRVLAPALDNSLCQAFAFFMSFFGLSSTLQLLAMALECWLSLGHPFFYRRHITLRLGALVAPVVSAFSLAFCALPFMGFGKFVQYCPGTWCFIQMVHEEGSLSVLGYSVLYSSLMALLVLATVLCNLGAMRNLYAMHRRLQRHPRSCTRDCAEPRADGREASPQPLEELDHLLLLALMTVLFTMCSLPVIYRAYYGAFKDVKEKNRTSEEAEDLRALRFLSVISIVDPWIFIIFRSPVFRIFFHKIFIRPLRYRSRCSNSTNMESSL

O=C(O)c1cccnc1 [nicotinic acid]
half life ([1]; oral): about 60 minutes | time to peak plasma concentrations ([1]; oral): 30 to 60 min | oral absorption [1]: almost completely absorbed | additional lowering of LDL levels ([2]; 1 g/day added to stable statin): 8% | additional raise of HDL levels ([2]; 1 g/day added to stable statin): 24% | additional lowering of LDL ([2]; 2 g/day added to stable statin): 20% | additional raise of HDL cholesterol levels ([2]; 2 g/day added to stable statin): 27% | serum glucose change from baseline ([3]; 1 hour post dose): significant decrease | serum glucose after feeding ([3]; following animal feeding between 1-2 hours post dose): rebound to baseline levels | rate of moderate/severe flushing [4]: 50% | CIMT [5]: significant reduction | HDL cholesterol [6]: +15 to +35% | LDL cholesterol [6]: −5 to −25% | TG [6]: −20 to −50% | coronary artery revascularization, non-fatal MI, stroke and TIA [7]: significant reduction | TG levels at 48 hours (follow up) ([8]; 48 hours): 64 ± 31 mg/dL | TG levels at baseline ([8]; baseline): 50 ± 10 mg/dL | increase in TG levels (non-significant) ([8]; baseline to 48 hours): 23.3% | reduction from baseline in LDL cholesterol [8, 14]: 33% | reduction from baseline in apolipoprotein B [8, 14]: 24% | increase in fingerstick glucose levels ([9]; doses <2.5 g): 4% to 5 | patients with diabetes requiring a change in hypoglycemic therapy [9]: 10-35% | patients with diabetes requiring a change in hypoglycemic therapy ([9]; listed as Nicotinic acid): 10% to 35 | patients discontinuing treatment because of flushing ([10]; Jacobson 2010): 5-20% | users experiencing mild or moderate flushing ([10]; review of clinical trials): > 60% | reduction of incidence of non-fatal re-infarction / risk of myocardial infarction ([11]; five year follow up, men with history of MI): 27% | decrease in all-cause (long-term) mortality ([11]; mean follow-up of 15 years): 11% | PGD2 AUC [12]: 128.3 ± 38.2 ng·h/mL | HDL increase ([13]; 1,000 mg once daily added to simvastatin): 21% | carotid intima-media thickness (CIMT) ([13]; after 12 months): unchanged
